Among the data in PubChem BioAssay (NCI) are TGI and GI50 values, retold here.

Among the test systems are HCT-15 colon; HOP-62 NSCLC; SK-MEL-28 melanoma; NCI-H226 lung; SF-539 CNS; SN12C renal; ACHN renal; RPMI-8226 leukemia; EKVX NSCLC; UACC-62 melanoma.
Assay in all cases: NCI tumour cell line growth inhibition, 48 h

Where “and” joins values, the source holds several entries; their conditions need not be identical. Equal values may be shown once.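 Compound exposure: 48 hours, 5 concentrations, 96-well plates. GI50 marks 50% less growth. TGI is the concentration that stops growth completely.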

For the compound `COC(=O)c1c2cccccc-2c(Cc2c3cccccc-3c(C(=O)OC)c2O)c1O`, the TGI in the assay with HCT-15 colon, in the assay on HOP-62 NSCLC, with SK-MEL-28 melanoma, with NCI-H226 lung, in the assay on SF-539 CNS and in the assay on SN12C renal was greater than 100 µM in each case. Besides, the TGI in the assay with ACHN renal, with RPMI-8226 leukemia, in the assay on EKVX NSCLC and in the assay on UACC-62 melanoma was greater than 100 µM each time.
For `O=C(OC[C@H]1O[C@H](OC(=O)c2cc(O)c(O)c(OC(=O)c3cc(O)c(O)c(O)c3)c2)[C@H](OC(=O)c2cc(O)c(O)c(OC(=O)c3cc(O)c(O)c(O)c3)c2)[C@@H](OC(=O)c2cc(O)c(O)c(OC(=O)c3cc(O)c(O)c(O)c3)c2)[C@@H]1OC(=O)c1cc(O)c(O)c(OC(=O)c2cc(O)c(O)c(O)c2)c1)c1cc(O)c(O)c(OC(=O)c2cc(O)c(O)c(O)c2)c1`, the GI50 with HCT-15 colon is 6.2 µM; with HOP-62 NSCLC, 1.78 µM; in the assay with SK-MEL-28 melanoma, 12.8 µM; with NCI-H226 lung, 3.23 µM; in the assay with SF-539 CNS it was 5.56 µM; with SN12C renal, 4.2 µM. Moreover, the GI50 was 6.42 µM in the assay on ACHN renal, 7.35 µM with RPMI-8226 leukemia, 5.2 µM in the assay with EKVX NSCLC and 0.985 µM in the assay on UACC-62 melanoma. For the same compound, the TGI in the assay on HCT-15 colon is greater than 25 µM; in the assay on HOP-62 NSCLC, greater than 25 µM; in the assay on SK-MEL-28 melanoma, greater than 25 µM; with NCI-H226 lung, 18 µM; in the assay on SF-539 CNS, greater than 25 µM; in the assay with SN12C renal, greater than 25 µM. For the same compound, the TGI in the assay on ACHN renal, in the assay with RPMI-8226 leukemia, in the assay on EKVX NSCLC and with UACC-62 melanoma was greater than 25 µM each time.
For `O=c1c(-c2ccccc2)coc2cc(OC/C(=N/O)c3ccccc3)ccc12`, the GI50 in the assay on HCT-15 colon was 16.2 µM; in the assay with HOP-62 NSCLC it was 18.9 µM; with SK-MEL-28 melanoma it was 28.8 µM; in the assay on NCI-H226 lung it was 23.4 µM; with SF-539 CNS it was 25.4 µM; with SN12C renal, 18 µM. For the same compound, the GI50 was 21.8 µM in the assay with ACHN renal, 13.8 µM with RPMI-8226 leukemia, 13.4 µM with EKVX NSCLC and 15.2 µM in the assay on UACC-62 melanoma. Also, the TGI was 39.6 µM in the assay with HCT-15 colon; 51.3 µM in the assay on HOP-62 NSCLC; greater than 100 µM in the assay on SK-MEL-28 melanoma; greater than 100 µM in the assay on NCI-H226 lung; 53.3 µM in the assay on SF-539 CNS; 39.9 µM in the assay on SN12C renal. Moreover, the TGI in the assay with ACHN renal was determined as 43.5 µM; in the assay with RPMI-8226 leukemia, 53 µM; in the assay on EKVX NSCLC, 48.5 µM; in the assay with UACC-62 melanoma, 31.4 µM.
On to `COc1ccc(OCC(=O)O)c(C(=O)CCC(=O)O)c1`, for which the TGI in the assay on HCT-15 colon was greater than 100 µM; with HOP-62 NSCLC, greater than 10 µM; in the assay on SK-MEL-28 melanoma, greater than 100 µM; in the assay with NCI-H226 lung, greater than 100 µM; with SF-539 CNS, greater than 100 µM; in the assay with SN12C renal, greater than 100 µM. Further, the TGI is greater than 100 µM in the assay with ACHN renal, greater than 100 µM with RPMI-8226 leukemia, greater than 100 µM in the assay with EKVX NSCLC and greater than 10 µM in the assay with UACC-62 melanoma.
Turning to `CCOC(=O)c1c2c(n3ccccc13)C(=O)c1ncccc1C2=O`, the GI50 is 0.024 µM in the assay with HCT-15 colon; 0.0777 µM in the assay with HOP-62 NSCLC; 0.134 µM with SK-MEL-28 melanoma; 0.0544 µM in the assay with NCI-H226 lung; 0.111 µM with SF-539 CNS; 0.0348 µM in the assay on SN12C renal. In addition, the GI50 was 0.0343 µM in the assay on ACHN renal, 0.423 µM with RPMI-8226 leukemia, 1.13 µM with EKVX NSCLC and 0.0337 µM in the assay with UACC-62 melanoma. Also, the TGI was determined as 12.8 µM with HCT-15 colon; 8.86 µM in the assay with HOP-62 NSCLC; 33.3 µM with SK-MEL-28 melanoma; 3.5 µM with NCI-H226 lung; 1.96 µM with SF-539 CNS; 5.85 µM with SN12C renal. Further, the TGI in the assay on ACHN renal came out at 6.24 µM; with RPMI-8226 leukemia, 19.5 µM; in the assay with EKVX NSCLC it was 19.3 µM; with UACC-62 melanoma, 1.39 µM.
For the compound `NCCCNCCCCNC(=O)C(O)NC(=O)CCCCCCN=C(N)N` (stereo not given), the GI50 is greater than 2640 µM with HCT-15 colon; 3470 µM in the assay with HOP-62 NSCLC; greater than 3670 µM in the assay with SK-MEL-28 melanoma; 2430 µM in the assay on NCI-H226 lung; greater than 4070 µM in the assay on SF-539 CNS; 2040 µM with SN12C renal. For the same compound, the GI50 is 2750 µM in the assay on ACHN renal, 1770 µM in the assay with RPMI-8226 leukemia, 4980 µM in the assay with EKVX NSCLC and greater than 2860 µM with UACC-62 melanoma. Moreover, the TGI is 750 µM and > 5000 µM in the assay with HCT-15 colon; 750 µM and > 5000 µM with HOP-62 NSCLC; greater than 5000 µM in the assay on SK-MEL-28 melanoma; 750 µM and > 5000 µM in the assay on NCI-H226 lung; greater than 5000 µM in the assay with SF-539 CNS; greater than 5000 µM with SN12C renal. The TGI in the assay with ACHN renal was greater than 5000 µM; in the assay on RPMI-8226 leukemia, 750 µM and > 3790 µM; with EKVX NSCLC it was 742 µM and > 5000 µM; with UACC-62 melanoma, 750 µM and > 5000 µM.
For the compound `Cc1cc(C)cc(NC(N)=S)c1`, the TGI with HCT-15 colon was 38.4 µM; in the assay with HOP-62 NSCLC, greater than 100 µM; in the assay with SK-MEL-28 melanoma, greater than 100 µM; in the assay on NCI-H226 lung it was greater than 100 µM; with SF-539 CNS it was greater than 100 µM; in the assay on SN12C renal it was greater than 100 µM. In addition, the TGI with ACHN renal, with RPMI-8226 leukemia, in the assay with EKVX NSCLC and with UACC-62 melanoma was greater than 100 µM throughout.
On to `O=C1C(=O)c2cccnc2-c2ncccc21`, for which the GI50 in the assay with HCT-15 colon is 0.185 µM; in the assay on HOP-62 NSCLC, 0.225 µM; with SK-MEL-28 melanoma, 0.472 µM; with NCI-H226 lung, 0.696 µM; in the assay on SF-539 CNS it was 0.184 µM; in the assay on SN12C renal, 0.25 µM. Moreover, the GI50 in the assay with ACHN renal was 0.0545 µM; in the assay on RPMI-8226 leukemia it was 0.0459 µM; in the assay with EKVX NSCLC, 0.322 µM; in the assay on UACC-62 melanoma, 0.201 µM. Besides, the TGI is 1.42 µM with HCT-15 colon; 0.882 µM with HOP-62 NSCLC; 1.8 µM in the assay on SK-MEL-28 melanoma; 2.05 µM with NCI-H226 lung; 0.502 µM in the assay on SF-539 CNS; 0.848 µM in the assay on SN12C renal. In addition, the TGI with ACHN renal was 0.318 µM; in the assay with RPMI-8226 leukemia, 0.399 µM; in the assay on EKVX NSCLC, 1.29 µM; with UACC-62 melanoma, 0.514 µM.
